Here are results for one compound from ChEMBL document CHEMBL3044549, “Colchicine and its various physicochemical and biological aspects” (Med Chem Res, 2013).

A short description of series [1]: Elimination half life in healthy Homo sapiens (human). It is filed as ADME, organism-based. Particulars: in vivo, read-out: beta t1/2 (converted).
Series [2] in a line: Renal clearance in healthy Homo sapiens (human). It counts as ADME, organism-based, Kidney. The settings on record: in vivo.
Series [3] can be described thus: Volume of distribution in Homo sapiens (human). It counts as ADME, organism-based. Particulars: in vivo.
The species entered for series [4] is Homo sapiens. The series can be described thus: Distribution half life in Homo sapiens (human). The settings on record: in vivo. It is filed as ADME, organism-based.
A short description of series [5]: Oral bioavailability in older Homo sapiens (human) individuals at 1 mg. It counts as ADME, organism-based. The settings on record: in vivo.
The nature of series [6]: Oral bioavailability in healthy Homo sapiens (human) at 1 mg. It is filed as ADME, organism-based. The settings on record: in vivo.

Turning to `COc1cc2c(c(OC)c1OC)-c1ccc(OC)c(=O)cc1[C@@H](NC(C)=O)CC2` [COLCHICINE], in series [1], the half-life is 14 h. This compound had a CL renal in series [2] of 66.7 mL/min. Also, the distribution volume (Vd) (usually the apparent volume that relates the amount in the body to the concentration in plasma or blood) in series [3] came out at 7 L/kg. The alphat1/2 in series [4] was found to be 1 h. Also, the bioavailability in series [5] and in series [6] was 45% each time.
